Each compound was assayed against T1, human MRGPR X4 (Homo sapiens, UniProt Q96LA9) (assay: MRGPR X4 antagonist activity, IP-One Gq HTRF assay in stably transfected HEK cells). Conditions: not given.
T1 construct: expressed in transfected cells
Type: cell-based
Procedure, shortened: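 Human MRGPR X4-expressing HEK cells, 20,000/well, were incubated with compound (10-point curve, 10 uM top, 1:3 dilutions) plus agonist (10 μM bilirubin, 20 μM deoxycholic acid or 100 μM conjugated bilirubin) in Tris/NaCl/LiCl buffer, pH 8, for 1 h at 37 °C, then 30 min at room temperature. IP-1 was read by HTRF, and IC50 was taken from the HTRF ratio.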

T1 sequence (Q96LA9 whole entry): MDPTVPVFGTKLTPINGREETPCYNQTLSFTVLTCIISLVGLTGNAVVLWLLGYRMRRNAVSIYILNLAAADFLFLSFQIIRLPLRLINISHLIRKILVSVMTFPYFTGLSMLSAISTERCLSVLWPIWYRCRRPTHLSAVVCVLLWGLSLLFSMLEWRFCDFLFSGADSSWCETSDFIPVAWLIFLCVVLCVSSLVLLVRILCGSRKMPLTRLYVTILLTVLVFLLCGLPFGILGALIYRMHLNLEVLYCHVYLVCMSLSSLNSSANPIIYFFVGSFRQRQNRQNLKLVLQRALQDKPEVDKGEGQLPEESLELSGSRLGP

Compound | IC50 [nM]
Cc1nc(Cn2nc(C(=O)NCCc3nnc4ccccn34)c3ccccc32)nc2ccccc12 [Compound 431] | 1000 to 2500
O=C(NCCc1nnc2ccccn12)c1nn(Cc2ccc3ccccc3c2)c2ccccc12 [Compound 432] | < 100
O=C(NCCc1nnc2ccccn12)c1nn(Cc2cccc3c2OCO3)c2ccccc12 [Compound 433] | 501 to 1000
COc1cccc(Cn2nc(C(=O)NCCc3nnc4ccccn34)c3ccccc32)n1 [Compound 434] | 1000 to 2500
O=C(NCCc1nnc2ccccn12)c1nn(Cc2ncc3cc(Cl)ccc3n2)c2ccccc12 [Compound 436] | 100 to 500
CC(C)c1noc(Cn2nc(C(=O)NCCc3nnc4ccccn34)c3ccccc32)n1 [Compound 437] | 100 to 500
O=C(NCCc1nnc2ccccn12)c1nn(Cc2nc3ccccc3o2)c2ccccc12 [Compound 438] | 100 to 500
Cc1nc(Cn2nc(C(=O)NCCc3nnc4ccccn34)c3ccccc32)cs1 [Compound 439] | 100 to 500
O=C(NCCc1nnc2ccccn12)c1nn(Cc2ncco2)c2ccccc12 [Compound 440] | > 2500
O=C(NCCc1nnc2ccccn12)c1nn(CCc2ccc(C(F)(F)F)cc2)c2ccccc12 [Compound 441] | 1000 to 2500
CN1CCN(CCCn2nc(C(=O)NCCc3nnc4ccccn34)c3ccccc32)CC1 [Compound 444] | > 2500
C#Cc1ccc(Cn2nc(C(=O)NCCc3nnc4ccccn34)c3ccccc32)cc1 [Compound 445, N-(2-([1,2,4]triazolo[4,3-a]pyridin-3-yl)ethyl)-1-(4-ethynylbenzyl)-1H-indazole-3-carboxamide] | 100 to 500
N#Cc1cccc(Cn2nc(C(=O)NCCc3nnc4ccccn34)c3ccccc32)c1 [Compound 446] | 1000 to 2500
CCc1ccc(Cn2nc(C(=O)NCCc3nnc4ccccn34)c3ccccc32)cc1 [Compound 447] | 100 to 500
COc1ccc(Cn2nc(C(=O)NCCc3nnc4ccccn34)c3ccccc32)nc1 [Compound 448] | > 2500
Cc1c(Cn2nc(C(=O)NCCc3nnc4ccccn34)c3ccccc32)cccc1-c1ccccc1 [Compound 449] | 100 to 500
CN(C)c1cccc(Cn2nc(C(=O)NCCc3nnc4ccccn34)c3ccccc32)c1 [Compound 451] | 100 to 500
Cn1ncc2cc(Cn3nc(C(=O)NCCc4nnc5ccccn45)c4ccccc43)ccc21 [Compound 452] | 501 to 1000
COc1ccc2ccccc2c1Cn1nc(C(=O)NCCc2nnc3ccccn23)c2ccccc21 [Compound 453] | 1000 to 2500
O=C(NCCc1nnc2ccccn12)c1nn(Cc2nccc3ccccc23)c2ccccc12 [Compound 454] | 1000 to 2500
O=C(NCCc1nnc2ccccn12)c1nn(Cc2cnc3ccccc3c2)c2ccccc12 [Compound 455] | 100 to 500
CC(C)c1cccc(Cn2nc(C(=O)NCCc3nnc4ccccn34)c3ccccc32)c1 [Compound 456] | 100 to 500

Compound | IC50 [nM]
Cc1cccc(C(F)(F)F)c1Cn1nc(C(=O)NCCc2nnc3ccccn23)c2ccccc21 [Compound 457] | > 2500
O=C(NCCc1nnc2ccccn12)c1nn(Cc2ccc3ncccc3c2)c2ccccc12 [Compound 458] | 501 to 1000
O=C(NCCc1nnc2ccccn12)c1nn(Cc2cccc(C(F)(F)F)c2F)c2ccccc12 [Compound 459] | 100 to 500
Cn1ncc2cccc(Cn3nc(C(=O)NCCc4nnc5ccccn45)c4ccccc43)c21 [Compound 460] | 501 to 1000
O=C(NCCc1nnc2ccccn12)c1nn(Cc2ccc(-n3cccn3)cc2)c2ccccc12 [Compound 461] | 1000 to 2500
CC(C)(C#N)c1ccc(Cn2nc(C(=O)NCCc3nnc4ccccn34)c3ccccc32)cc1 [Compound 462] | 1000 to 2500
O=C(NCCc1nnc2ccccn12)c1nn(Cc2ccc(OC(F)F)cc2)c2ccccc12 [Compound 463] | < 100
N#Cc1ccc(Cn2nc(C(=O)NCCc3nnc4ccccn34)c3ccccc32)cn1 [Compound 464] | 1000 to 2500
O=C(NCCc1nnc2ccccn12)c1nn(Cn2nnc3ccccc32)c2ccccc12 [Compound 465] | 100 to 500
N#Cc1ccc(Cn2nc(C(=O)NCCc3nnc4ccccn34)c3ccccc32)s1 [Compound 466] | 100 to 500
Cn1cc(C(=O)Cn2nc(C(=O)NCCc3nnc4ccccn34)c3ccccc32)cn1 [Compound 467] | 100 to 500
O=C(NCCc1nnc2ccccn12)c1nn(CC(=O)C2CCCCC2)c2ccccc12 [Compound 469] | 1000 to 2500
COc1ccc(Cn2nc(C(=O)NCCc3nnc4ccccn34)c3ccccc32)c2ccccc12 [Compound 473] | 100 to 500
O=C(NCCc1nnc2ccccn12)c1nn(Cc2cccc3ccccc23)c2ccccc12 [Compound 474] | 100 to 500
O=C(NCc1cccc2nc[nH]c12)c1nn(Cc2ccc(Cl)cc2)c2ccccc12 [Compound 475] | > 2500
O=C(NCCc1nnc2ccccn12)c1nn(Cc2ccn3ccnc3c2)c2ccccc12 [Compound 476] | > 2500
O=C(NCCc1nnc2ccccn12)c1nn(Cc2ccc3nsnc3c2)c2ccccc12 [Compound 477] | < 100
O=C(NCCc1nnc2ccccn12)c1nn(Cc2ccc(-c3cnco3)cc2)c2ccccc12 [Compound 478] | 501 to 1000
Cc1cc(C)c(Cn2nc(C(=O)NCCc3nnc4ccccn34)c3ccccc32)c(C)c1 [Compound 479] | 100 to 500
CCn1c(Cn2nc(C(=O)NCCc3nnc4ccccn34)c3ccccc32)nc2ccccc21 [Compound 480] | 501 to 1000
O=C(Cn1nc(C(=O)NCCc2nnc3ccccn23)c2ccccc21)c1ccc(Cl)cc1 [Compound 481] | 501 to 1000
Cc1ccc(C(=O)Cn2nc(C(=O)NCCc3nnc4ccccn34)c3ccccc32)c(C)c1 [Compound 483] | 501 to 1000

Compound | IC50 [nM]
O=C(NCCc1nnc2ccccn12)c1nn(CCOc2ccc(Cl)cc2)c2ccccc12 [Compound 485] | 501 to 1000
COc1ccccc1OCCn1nc(C(=O)NCCc2nnc3ccccn23)c2ccccc21 [Compound 486] | 501 to 1000
O=C(NCCc1nnc2ccccn12)c1nn(CCCC2CCCC2)c2ccccc12 [Compound 487] | 100 to 500
O=C(NCCc1nnc2ccccn12)c1nn(CC2CCCCC2)c2ccccc12 [Compound 488] | 501 to 1000
O=C(NCCc1nnc2ccccn12)c1nn(CC2CCC(F)(F)CC2)c2ccccc12 [Compound 489] | 501 to 1000
O=C(NCCc1nnc2ccccn12)c1nn(Cc2ccc(C3CC3)cc2)c2ccccc12 [Compound 490] | < 100
O=C(NCCc1nnc2ccccn12)c1nn(Cc2cccc3c2CCO3)c2ccccc12 [Compound 491] | 100 to 500
CN(C)c1cccc(Cn2nc(C(=O)NCCc3nnc4ccccn34)c3ccccc32)n1 [Compound 492] | > 2500
O=C(NCCc1nnc2ccccn12)c1nn(Cc2ccc3occc3c2)c2ccccc12 [Compound 493] | < 100
O=C(NCCc1nnc2ccccn12)c1nn(Cc2ccc3c(c2)CCC3)c2ccccc12 [Compound 494] | < 100
O=C(NCCc1nnc2ccccn12)c1nn(Cc2ccc3sccc3c2)c2ccccc12 [Compound 495] | < 100
O=C(NCCc1nnc2ccccn12)c1nn(Cc2cc3ccccc3o2)c2ccccc12 [Compound 496] | < 100
O=C(NCCc1nnc2ccccn12)c1nn(Cc2nc3ccccc3s2)c2ccccc12 [Compound 497] | < 100
O=C(NCCc1nnc2ccccn12)c1nn(Cc2cnn(-c3ccccc3)c2)c2ccccc12 [Compound 498] | 100 to 500
COc1ccc(-c2nc(Cn3nc(C(=O)NCCc4nnc5ccccn45)c4ccccc43)cs2)cc1 [Compound 499] | 501 to 1000
O=C(NCCc1nnc2ccccn12)c1nn(Cc2cnc(C(F)(F)F)s2)c2ccccc12 [Compound 501] | 100 to 500
O=C(NCCc1nnc2ccccn12)c1nn(Cc2cn3cc(Br)ccc3n2)c2ccccc12 [Compound 502] | > 2500
O=C(NCCc1nnc2ccccn12)c1nn(CCC2CCCC2)c2ccccc12 [Compound 504] | 501 to 1000
O=C(NCCc1nnc2ccccn12)c1nn(CCc2ccc(Cl)c(Cl)c2)c2ccccc12 [Compound 505] | 1000 to 2500
O=C(NCCc1nnc2ccccn12)c1nn(Cc2ccc3c(c2)OC(F)(F)O3)c2ccccc12 [Compound 507] | 100 to 500

Same assay, conditions: versus 20 μM deoxycholic acid agonist; HEK cells expressing human MRGPR X4; read-out: MRGPRX4 Antagonist Activity

Compound | IC50 [nM]
CS(=O)(=O)c1ccccc1Cn1nc(C(=O)NCCc2nnc3ccccn23)c2ccccc21 [Compound 435] | > 2500
O=C(NCCc1nnc2ccccn12)c1nn(CCc2ccc(Cl)cc2)c2ccccc12 [Compound 442] | > 2500
O=C(CCn1nc(C(=O)NCCc2nnc3ccccn23)c2ccccc21)c1ccc(F)cc1 [Compound 443] | > 2500
Cc1nccn1-c1ccc(Cn2nc(C(=O)NCCc3nnc4ccccn34)c3ccccc32)cc1 [Compound 450] | > 2500
Cc1ccc(C(=O)Cn2nc(C(=O)NCCc3nnc4ccccn34)c3ccccc32)cc1 [Compound 468] | 1000 to 2500
O=C(NCCc1nnc2ccccn12)c1nn(CCCOc2ccc(Cl)cc2)c2ccccc12 [Compound 470] | > 2500
O=C(NCCc1nnc2ccccn12)c1nn(CCc2ccc(F)cc2F)c2ccccc12 [Compound 471] | > 2500
O=C(Cn1nc(C(=O)NCCc2nnc3ccccn23)c2ccccc21)NCC1CCCCC1 [Compound 472] | > 2500
O=C(Cn1nc(C(=O)NCCc2nnc3ccccn23)c2ccccc21)c1ccc(Cl)c(Cl)c1 [Compound 482] | < 100
COc1ccc(C(=O)Cn2nc(C(=O)NCCc3nnc4ccccn34)c3ccccc32)cc1 [Compound 484] | 1000 to 2500
O=C(NCCc1nnc2ccccn12)c1nn(Cc2cc(-c3ccc4c(c3)OCO4)no2)c2ccccc12 [Compound 500] | 1000 to 2500
O=C(Cn1nc(C(=O)NCCc2nnc3ccccn23)c2ccccc21)c1cc2ccccc2o1 [Compound 503] | 501 to 1000
COc1ccccc1CCCn1nc(C(=O)NCCc2nnc3ccccn23)c2ccccc21 [Compound 506] | > 2500
